For series [1], the system named is CT26-induced tumors. The series can be described thus: Colon cancer model, tumor weight and size after 21 days. The settings on record: intravenous every three days.
The next series in a line: MTT cytotoxicity assay. The series is classed as cell-based. The settings on record: human, HFF cells. In general terms: Tetrazolium assays rely on reduction of a dye to a coloured formazan, in cell work by metabolically active cells.
Series [2] is described as follows: Kidney histology in colon cancer model. The conditions noted are these: kidney tissue, day 21.
Series [3] has as its system CT26-induced tumors. The experiment in a line: Tumor histology. The conditions noted are these: tumor tissue, day 21.
A short description of series [4]: Blood parameters in colon cancer model.

A word on the viability: it is a read-out of living cells in per cent, often relative to untreated cells.

Turning to `O=c1[nH]cc(F)c(=O)[nH]1` [Free 5FU, 5-Fluorouracil], in the series with CT26-induced tumors [1], the “Mean tumor size ± standard deviation” value came to 11.0 ± 2.0 mm and the “Mean tumor weight ± standard deviation” value was found to be 0.98 ± 0.36 g. Moreover, in the series “MTT cytotoxicity assay”, the viability at 24 h, 0.2 mg/mL stood at 99.5%; the viability at 24 h, 0.5 mg/mL is 87.9%; the viability at 24 h, 1 mg/mL was 85.9%; the viability at 24 h, 1.5 mg/mL was determined as 75.9%. For the same compound, in the series “MTT cytotoxicity assay”, the viability at 24 h, 2 mg/mL was found to be 75.1%; the viability at 48 h, 0.2 mg/mL worked out at 104%; the viability at 48 h, 0.5 mg/mL came out at 94.1%; the viability at 48 h, 1 mg/mL came out at 79.4%. For the same compound, in “MTT cytotoxicity assay”, the viability at 48 h, 1.5 mg/mL turned out to be 74.7% and the viability at 48 h, 2 mg/mL turned out to be 65.1%. Moreover, in series [2], the “renal complications (kidney histology)” value was “Most renal complications occurred in this group”. In addition, in the series with CT26-induced tumors [3], the “Number of Apoptotic Cells (per field of view) ± Standard Deviation” value was 8.0 ± 1.0 per field of view; the “Other Histopathology Changes” value was “Mild necrotic changes and inflammation”; the “Percentage of Necrosis ± Standard Deviation” value was determined as 18.0 ± 4.0%; the “Tumor Differentiation Grade (1 to 3) ± Standard Deviation” value is 2.0 ± 0.3. Moreover, in series [4] (Day 21), the “Red Blood Cell Count ± SD” value worked out at 4.2 ± 0.3 ×10⁶ cells/µL and the “White Blood Cell Count ± SD” value is given as 10.0 ± 1.5 ×10³ cells/µL. Also, the “Hemoglobin Level ± SD” value in series [4] (Day 21, listed as 5-FU) was 9.0 ± 0.8 g/dL. Also, the “Hemoglobin Level ± SD” value in series [4] (Day 21, listed as free 5-FU) is given as 9.0 g/dL. For the same compound, in series [4] (Treatment start), the “Hemoglobin Level ± SD” value was 12.8 ± 1.2 g/dL, the “Red Blood Cell Count ± SD” value turned out to be 5.6 ± 0.5 ×10⁶ cells/µL and the “White Blood Cell Count ± SD” value is 8.3 ± 1.1 ×10³ cells/µL.

(Values after publication PMC12480555 (Scientific Reports, 2025).)
